From ChEMBL document CHEMBL5096179, “Small molecule approaches to treat autoimmune and inflammatory diseases (Part II): Nucleic acid sensing antagonists and inhibitors” (Bioorg Med Chem Lett, 2021)
Blank lines part the entries; values can stand above or below the molecule they belong to.

What was measured:
[1] = biological target: NACHT, LRR and PYD domains-containing protein 3 (Mus musculus, UniProt Q8R4B8); assay: Inhibition of NLRP3 inflammasome activation in LPS-primed C57BL/6 mouse bone marrow derived macrophages incubated for 30 mins in presence of ATP by immunoblotting analysis; type: cell-based, Macrophage
Sequence of NACHT, LRR and PYD domains-containing protein 3 (Q8R4B8 whole entry, the tested form may be a part): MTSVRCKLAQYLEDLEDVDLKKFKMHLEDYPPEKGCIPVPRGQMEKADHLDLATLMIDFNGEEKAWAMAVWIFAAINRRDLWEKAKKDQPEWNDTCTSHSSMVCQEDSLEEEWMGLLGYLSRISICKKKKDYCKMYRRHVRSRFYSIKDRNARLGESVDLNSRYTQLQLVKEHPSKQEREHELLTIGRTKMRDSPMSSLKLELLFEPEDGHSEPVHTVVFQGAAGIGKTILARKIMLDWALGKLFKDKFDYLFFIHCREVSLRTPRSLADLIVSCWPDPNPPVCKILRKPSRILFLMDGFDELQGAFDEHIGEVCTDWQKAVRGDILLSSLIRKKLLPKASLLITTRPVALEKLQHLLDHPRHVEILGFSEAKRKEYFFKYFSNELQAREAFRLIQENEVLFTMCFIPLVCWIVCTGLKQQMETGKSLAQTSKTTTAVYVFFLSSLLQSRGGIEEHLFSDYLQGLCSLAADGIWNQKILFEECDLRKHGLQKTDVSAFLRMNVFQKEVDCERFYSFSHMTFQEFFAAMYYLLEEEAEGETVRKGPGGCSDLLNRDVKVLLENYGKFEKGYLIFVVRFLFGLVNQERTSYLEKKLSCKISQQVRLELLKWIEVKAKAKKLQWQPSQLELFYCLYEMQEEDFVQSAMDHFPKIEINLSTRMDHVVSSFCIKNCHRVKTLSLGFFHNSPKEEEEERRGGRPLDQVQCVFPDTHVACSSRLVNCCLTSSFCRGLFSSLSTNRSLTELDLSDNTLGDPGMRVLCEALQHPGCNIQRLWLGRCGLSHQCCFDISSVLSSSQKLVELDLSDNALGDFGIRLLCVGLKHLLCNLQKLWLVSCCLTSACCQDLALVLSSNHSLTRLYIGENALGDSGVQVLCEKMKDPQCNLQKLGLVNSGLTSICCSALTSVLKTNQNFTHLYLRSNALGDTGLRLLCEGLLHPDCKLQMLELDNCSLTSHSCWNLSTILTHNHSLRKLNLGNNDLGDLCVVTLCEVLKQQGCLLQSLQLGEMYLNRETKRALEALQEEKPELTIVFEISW

[2] = system: RAW264.7; assay: Cytotoxicity against mouse RAW264.7 cells assessed as cell growth inhibition measured after 24 hrs by Celltiter-Glo assay; type: functional, cell-based; settings: RAW264.7, 24 h
[3] = biological target: T1, Toll-like receptor 8 (Homo sapiens, UniProt Q9NR97); assay: Antagonist activity at R848 stimulated TRL8 overexpressed in HEK293 cells measured after 20 to 24 hrs by SEAP reporter assay; type: cell-based
T1 sequence (Q9NR97 whole entry): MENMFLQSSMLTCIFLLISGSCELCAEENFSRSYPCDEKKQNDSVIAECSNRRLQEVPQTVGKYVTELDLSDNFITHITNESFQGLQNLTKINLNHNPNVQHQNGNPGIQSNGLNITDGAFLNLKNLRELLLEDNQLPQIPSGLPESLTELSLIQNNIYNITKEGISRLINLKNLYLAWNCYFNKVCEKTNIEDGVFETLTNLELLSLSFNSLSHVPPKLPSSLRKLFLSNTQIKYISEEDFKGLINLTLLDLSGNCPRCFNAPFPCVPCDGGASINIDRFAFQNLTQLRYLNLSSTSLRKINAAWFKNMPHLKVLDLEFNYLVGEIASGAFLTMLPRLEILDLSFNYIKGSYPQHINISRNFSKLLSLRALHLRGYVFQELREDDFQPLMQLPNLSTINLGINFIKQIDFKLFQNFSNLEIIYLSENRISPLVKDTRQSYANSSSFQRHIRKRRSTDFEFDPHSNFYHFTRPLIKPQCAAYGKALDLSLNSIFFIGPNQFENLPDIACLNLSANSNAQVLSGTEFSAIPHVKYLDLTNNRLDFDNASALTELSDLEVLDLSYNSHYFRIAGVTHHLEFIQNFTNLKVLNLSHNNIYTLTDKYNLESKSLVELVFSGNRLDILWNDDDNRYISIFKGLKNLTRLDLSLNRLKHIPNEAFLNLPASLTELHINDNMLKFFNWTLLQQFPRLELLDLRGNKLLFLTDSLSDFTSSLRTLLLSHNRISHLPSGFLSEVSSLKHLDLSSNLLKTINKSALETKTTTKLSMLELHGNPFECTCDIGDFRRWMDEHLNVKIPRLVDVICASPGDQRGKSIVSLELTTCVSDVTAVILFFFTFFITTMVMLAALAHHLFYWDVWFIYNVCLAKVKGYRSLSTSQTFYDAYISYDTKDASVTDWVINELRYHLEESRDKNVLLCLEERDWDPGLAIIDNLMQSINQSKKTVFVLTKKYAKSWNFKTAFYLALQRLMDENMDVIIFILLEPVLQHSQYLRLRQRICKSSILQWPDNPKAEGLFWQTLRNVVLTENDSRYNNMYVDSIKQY

[4] = biological target: T2, Toll-like receptor 9 (Homo sapiens, UniProt Q9NR96); assay: Antagonist activity at TLR9 (unknown origin)
T2 sequence (Q9NR96 whole entry): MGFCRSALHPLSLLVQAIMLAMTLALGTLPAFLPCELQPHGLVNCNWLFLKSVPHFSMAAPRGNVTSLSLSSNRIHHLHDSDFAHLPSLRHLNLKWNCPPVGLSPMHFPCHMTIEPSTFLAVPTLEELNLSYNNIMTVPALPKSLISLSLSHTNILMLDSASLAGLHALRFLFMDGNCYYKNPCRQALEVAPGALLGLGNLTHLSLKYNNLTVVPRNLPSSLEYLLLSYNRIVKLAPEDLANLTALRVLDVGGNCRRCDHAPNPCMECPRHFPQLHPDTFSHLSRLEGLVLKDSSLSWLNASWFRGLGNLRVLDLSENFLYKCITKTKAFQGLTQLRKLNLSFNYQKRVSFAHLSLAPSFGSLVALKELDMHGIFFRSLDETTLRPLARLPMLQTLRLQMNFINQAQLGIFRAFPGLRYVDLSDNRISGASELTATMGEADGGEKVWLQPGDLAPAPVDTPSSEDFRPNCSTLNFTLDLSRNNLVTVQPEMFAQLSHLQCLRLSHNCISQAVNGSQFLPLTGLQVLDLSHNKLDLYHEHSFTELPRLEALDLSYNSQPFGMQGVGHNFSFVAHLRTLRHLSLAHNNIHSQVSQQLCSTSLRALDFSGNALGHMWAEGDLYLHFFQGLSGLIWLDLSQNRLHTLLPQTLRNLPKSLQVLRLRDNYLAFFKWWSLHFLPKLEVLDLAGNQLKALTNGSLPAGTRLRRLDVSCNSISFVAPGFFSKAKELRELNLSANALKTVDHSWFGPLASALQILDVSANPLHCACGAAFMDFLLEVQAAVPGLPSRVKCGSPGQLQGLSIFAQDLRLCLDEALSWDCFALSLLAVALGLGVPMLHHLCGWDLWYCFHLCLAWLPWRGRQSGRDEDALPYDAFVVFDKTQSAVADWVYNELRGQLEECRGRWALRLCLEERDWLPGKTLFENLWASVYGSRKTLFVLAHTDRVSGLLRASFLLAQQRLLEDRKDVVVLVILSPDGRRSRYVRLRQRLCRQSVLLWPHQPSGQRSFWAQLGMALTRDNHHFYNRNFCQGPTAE

[5] = biological target: T3, Cyclic GMP-AMP synthase (Homo sapiens, UniProt Q8N884); assay: Inhibition of N-terminal 6XHis-SUMO2 fused full length human cGAS (1 to 522 residues) expressed in […] incubated for 20 mins in presence of ATP by luminescence based analysis
T3 sequence (Q8N884 whole entry, the tested form may be a part): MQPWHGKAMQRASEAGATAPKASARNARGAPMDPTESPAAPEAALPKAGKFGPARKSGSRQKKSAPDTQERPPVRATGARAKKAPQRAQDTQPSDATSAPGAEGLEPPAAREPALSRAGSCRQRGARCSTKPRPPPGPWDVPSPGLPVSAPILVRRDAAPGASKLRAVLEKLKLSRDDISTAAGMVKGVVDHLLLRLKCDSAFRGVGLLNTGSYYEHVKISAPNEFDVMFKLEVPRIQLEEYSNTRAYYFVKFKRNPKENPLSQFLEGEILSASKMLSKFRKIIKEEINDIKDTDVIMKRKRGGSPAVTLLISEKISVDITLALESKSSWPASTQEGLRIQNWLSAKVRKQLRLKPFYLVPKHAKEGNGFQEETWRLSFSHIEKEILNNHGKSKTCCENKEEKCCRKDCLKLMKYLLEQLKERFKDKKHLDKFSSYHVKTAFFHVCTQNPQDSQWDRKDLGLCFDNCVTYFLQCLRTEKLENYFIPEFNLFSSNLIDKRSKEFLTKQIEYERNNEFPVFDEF

[6] = system: THP-1; assay: Cytotoxicity against human THP-1 cells assessed as cell growth inhibition; type: functional, cell-based
[7] = system: THP-1; assay: Cytotoxicity against human THP-1 cells assessed as cell growth inhibition measured after 24 hrs by Annexin-V staining based flow cytometry analysis; type: functional; settings: THP-1, 24 h
[8] = biological target: T4, Toll-like receptor 7 (Homo sapiens, UniProt Q9NYK1); assay: Antagonist activity at TLR7 in human PBMC incubated for 3 hrs by TR-FRET assay; type: cell-based
T4 sequence (Q9NYK1 whole entry): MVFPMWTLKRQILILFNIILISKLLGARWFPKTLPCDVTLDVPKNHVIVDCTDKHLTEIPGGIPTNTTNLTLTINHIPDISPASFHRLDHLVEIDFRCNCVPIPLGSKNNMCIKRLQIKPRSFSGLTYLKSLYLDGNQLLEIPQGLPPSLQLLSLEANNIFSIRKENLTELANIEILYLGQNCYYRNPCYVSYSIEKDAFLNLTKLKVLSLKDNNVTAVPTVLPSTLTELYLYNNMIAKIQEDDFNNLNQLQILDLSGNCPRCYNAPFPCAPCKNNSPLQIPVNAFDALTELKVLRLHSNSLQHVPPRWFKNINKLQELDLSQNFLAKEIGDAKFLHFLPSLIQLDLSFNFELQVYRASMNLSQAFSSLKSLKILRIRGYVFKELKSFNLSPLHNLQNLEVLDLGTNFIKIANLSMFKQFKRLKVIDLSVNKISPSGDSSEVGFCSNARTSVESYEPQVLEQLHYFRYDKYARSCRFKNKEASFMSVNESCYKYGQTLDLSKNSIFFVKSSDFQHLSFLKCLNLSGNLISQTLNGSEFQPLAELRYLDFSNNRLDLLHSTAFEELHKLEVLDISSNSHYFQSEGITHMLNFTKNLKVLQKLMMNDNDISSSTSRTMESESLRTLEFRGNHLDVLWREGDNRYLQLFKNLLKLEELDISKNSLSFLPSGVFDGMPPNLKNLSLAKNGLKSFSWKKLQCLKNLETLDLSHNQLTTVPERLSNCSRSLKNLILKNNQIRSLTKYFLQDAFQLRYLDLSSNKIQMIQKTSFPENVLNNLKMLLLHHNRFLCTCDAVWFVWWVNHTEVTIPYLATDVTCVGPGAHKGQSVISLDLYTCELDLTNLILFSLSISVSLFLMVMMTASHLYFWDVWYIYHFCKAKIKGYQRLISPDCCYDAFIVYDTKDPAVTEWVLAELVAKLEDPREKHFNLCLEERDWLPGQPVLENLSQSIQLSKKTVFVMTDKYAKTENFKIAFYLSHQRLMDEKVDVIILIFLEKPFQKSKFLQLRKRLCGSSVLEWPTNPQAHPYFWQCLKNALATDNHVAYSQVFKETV

[9] = Cytotoxicity against human THP1-Dual KO-IFNAR2 cells assessed as cell growth inhibition; type: functional, cell-based
[10] = biological target: T3, Cyclic GMP-AMP synthase; assay: Inhibition of cGAS expressed in human THP-1 cells assessed as reduction of IFN-beta expression by ELISA assay; type: cell-based
[11] = biological target: T3, Cyclic GMP-AMP synthase; assay: Inhibition of full-length human cGAS by fluorescence polarization
[12] = biological target: Stimulator of interferon genes protein (Homo sapiens, UniProt Q86WV6); assay: Binding affinity to wild-type human STING CTD (149 to 379 residues) expressed in Escherichia coli BL21 (DE3) assessed as dissociation constant by isothermal titration calorimetry assay
Sequence of Stimulator of interferon genes protein (Q86WV6 whole entry, the tested form may be a part): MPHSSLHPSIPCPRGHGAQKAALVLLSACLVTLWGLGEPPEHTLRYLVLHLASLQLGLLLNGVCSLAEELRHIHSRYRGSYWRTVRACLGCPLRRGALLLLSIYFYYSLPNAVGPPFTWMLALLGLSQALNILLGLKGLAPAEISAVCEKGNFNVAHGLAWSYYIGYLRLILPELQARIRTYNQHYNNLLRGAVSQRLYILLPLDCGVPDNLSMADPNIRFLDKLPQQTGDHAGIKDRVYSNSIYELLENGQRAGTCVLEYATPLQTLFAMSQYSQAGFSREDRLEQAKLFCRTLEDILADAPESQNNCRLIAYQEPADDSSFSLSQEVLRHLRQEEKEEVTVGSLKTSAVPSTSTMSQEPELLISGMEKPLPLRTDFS

[13] = system: IMR-90; assay: Cytotoxicity against human IMR-90 cells assessed as inhibition of IFN-beta production by MTS assay; type: functional, cell-based
[14] = system: THP-1; assay: Cytotoxicity against human THP-1 cells assessed as cell growth inhibition measured after 24 hrs by Celltiter-Glo assay; type: functional, cell-based; settings: THP-1, 24 h
[15] = biological target: T4, Toll-like receptor 7; assay: Antagonist activity at R848 stimulated TRL7 in HEK-Blue hTLR7 cells assessed as inhibition of NF kappa B/Ap-1 activation measured after 20 hrs by SEAP reporter assay; type: cell-based
[16] = biological target: T1, Toll-like receptor 8; assay: Antagonist activity at R848 stimulated TRL8 in HEK-Blue hTLR8 cells assessed as inhibition of NF kappa B/Ap-1 activation measured after 20 hrs by SEAP reporter assay; type: cell-based
[17] = biological target: T2, Toll-like receptor 9; assay: Antagonist activity at R848 stimulated TRL9 in HEK-Blue hTLR9 cells assessed as inhibition of NF kappa B/Ap-1 activation measured after 20 hrs by SEAP reporter assay; type: cell-based
[18] = biological target: T3, Cyclic GMP-AMP synthase; assay: Antagonist activity at N-terminal 6XHis tagged human cGAS (155 to 522 residues) expressed in Escherichia coli BL21 DE3 Rosetta 2 in presence of ATP by luciferase based assay
[19] = Inhibition of RANTES secretion in mouse Trex1-knockout bone marrow-derived macrophages incubated for 24 hrs by celltiter-glo assay; type: functional, cell-based; settings: BMDM
[20] = Inhibition of MCP-1 secretion in mouse Trex1-knockout bone marrow-derived macrophages incubated for 24 hrs by celltiter-glo assay; type: functional, cell-based; settings: BMDM

IC50 [1]: 25000 nM
SMILES: COc1ccc(/C=C/C(=O)Nc2ccccc2C(=O)O)cc1OC

SMILES: Nc1ccc(-c2cc(Cl)c(Cl)c3[nH]c4c(c23)CN(C(=O)CO)CC4)cn1
IC50 [2]: < 1000 nM

SMILES: Cc1cccc(-c2ccnc3c(C(N)=O)cnn23)c1
IC50 [3]: 67 nM

IC50 [4]: 5 nM
SMILES: CNCc1ccc(C(=O)Nc2nc(N3CCN(C4CCCC4)CC3)c3ncn(CCCN4CCCC4)c3n2)cc1

IC50 [5]: 13100 nM
SMILES: O=C(O)c1cccc(NC(=O)c2n[nH]c(-n3cnnc3)n2)c1

SMILES: COC(=O)[C@H](Cc1ccccc1)Nc1nc(NCc2nc3cc(F)ccc3[nH]2)nc(Nc2cccc(CN3CCN(C(=O)c4nccnc4O)CC3)c2)n1
IC50 [6]: 20000 nM

SMILES: COc1ccc2nc3cc(N)ccc3c(N(C)CCCN(C)c3ccncc3)c2c1
IC50 [7]: 14000 nM

IC50 [8]: < 0.5 nM
SMILES: CCN(C)CC(=O)NC12CCC(Cn3nc(C)c4c3CCN(c3cc(C)nc5c3cnn5C)C4)(CC1)CC2

SMILES: O=C(Nc1c[nH]c2cc(F)c(F)cc12)c1ncn(Cc2ccc(C(F)(F)F)cc2)n1
IC50 [9]: 40 nM

IC50 [5]: 29900 nM
SMILES: O=C(O)c1n[nH]c(-n2cnnc2)n1

IC50 [10]: 13000 nM
SMILES: Cc1nc(N2C[C@@H](CC(=O)Nc3ccncc3)C[C@H]2C(=O)O)c2oc3ccccc3c2n1

SMILES: CCCCc1ccc(Nc2c(Nc3c[nH]c4ccccc34)c(=O)c2=O)cc1
IC50 [9]: 200 nM

SMILES: CCCCc1ccc(S(N)(=O)=Nc2c[nH]c3ccccc23)cc1 (stereo not drawn)
IC50 [9]: 40 nM

IC50 [11]: < 1000 nM
SMILES: Cc1[nH]n2c(-c3ccccc3)c(C#N)nc2c(=O)c1-c1cccc(Cl)c1
IC50 [6]: < 10000 nM

SMILES: CC[C@@H]1CC(=O)[C@@H]2[C@H](Cl)[C@H](Cl)CN2C(=O)[C@H](CC)NC(=O)C[C@H](c2ccccc2)NC(=O)[C@H](CO)NC1=O
Kd [12]: 53 nM
IC50 [13]: 10800 nM

SMILES: O=C(Nc1cc(-c2ccccc2)ccn1)c1[nH]ncc1[N+](=O)[O-]
IC50 [14]: 2630 nM

IC50 [15]: < 3 nM
IC50 [16]: < 3 nM
IC50 [17]: < 32 nM
SMILES: Cc1cc(N2CCOC3(CN(C[C@H]4CN(c5ccc(C#N)c6ncccc56)C[C@@H](C)O4)C3)C2)cc(C)n1

IC50 [15]: < 3 nM
IC50 [16]: < 3 nM
IC50 [17]: < 32 nM
SMILES: COC12CNCC1CN(c1ccc3c(c1)CN1[C@H](C)CN(c4ccc(C#N)c5ncccc45)C[C@H]31)C2 (stereo partly drawn)

IC50 [18]: < 20000 nM
SMILES: COc1cccc2oc(-c3c(C#N)[nH]c4c(-c5ccccc5)c(C(F)(F)F)nn4c3=O)nc12
IC50 [19]: 1250 nM
IC50 [20]: 6970 nM

SMILES: CCCCc1ccc(NC(=O)Nc2c[nH]c3ncc(F)cc23)cc1
IC50 [9]: 40 nM
